One data set has as its system SJSA-1 cells. The data set is described as follows: MTT viability assay, SJSA-1 cells. It is filed as cell-based, human.
A further data set concerns HeLa cells. Description: Live-cell confocal microscopy of FAM-labeled peptides. Conditions: 5 μM FAM-labeled peptide, 2 h, 1% FBS. In kind it is cell-based.
The conditions of data set [1]: cited from earlier work.
In the next data set the test system is SW480 cells. The settings on record: up to 50 μM.
Data set [2] relates to MCF7, HCT116 and HeLa cells. The settings on record: ≥20 μM, apparently off-target (membrane disruption).

Where a SMILES comes first, the peptide text is derived from it. Bridges are numbered along the chain shown (N, C = ends). Roman numbers before positions name the chains, in order. [ ]: non-standard residue; d: D form. 2Nal = N[C@@H](Cc1ccc2ccccc2c1)C(=O)O; Dap = NC[C@H](N)C(=O)O; AEEA = NCCOCCOCC(=O)O

“Ac-LTFDHYWKQLTS-miniPEG-K(Tat) (sidechain bridge or staple) [Peptide 6]”: in the data set on SJSA-1 cells, the “effect on viability of SJSA-1 cells” value was “did not cause significant reduction”. With “Ac-LTFCHYWCQLTS-miniPEG-K(FAM) (bicyclic or more) [Peptide 21]”, the “intracellular fluorescence” value in the data set with HeLa cells was “brightly fluorescent”. Regarding “Ac-LTFDHYWKQLTS-miniPEG-K(R9) (sidechain bridge or staple) [Peptide 7]”, in the data set on SJSA-1 cells, the “effect on viability of SJSA-1 cells” value was “did not cause significant reduction”.

In the case of nonaarginine [Peptide R9], the “fold lower cytosolic delivery efficiency than cyclic CPP9” value in data set [1] is 15 fold. “Ac-ETFCHYWCQLTS-miniPEG-K(FAM) (bicyclic or more) [Peptide 23]”: the “intracellular fluorescence” value in the data set with HeLa cells is recorded as “brightly fluorescent”. Still for that read-out and setting: as for “Ac-EETFCHYWCQLTS-miniPEG-K(FAM) (bicyclic or more) [Peptide 25]”, the entry is “brightly fluorescent”. As to `CC[C@H](C)[C@@H]1NC(=O)[C@@H](NC(=O)[C@H](CCC(=O)O)NC(=O)[C@@H]2CCCN2C(=O)[C@H](Cc2ccc(O)cc2)NC(=O)CNC(=O)CNC(C)=O)CC(=O)NCCCC[C@@H](C(=O)N[C@@H](Cc2cnc[nH]2)C(=O)N[C@@H](CC(C)C)C(=O)N[C@@H](CCC(N)=O)C(=O)N[C@@H](CCCNC(=N)N)C(=O)N[C@H](C(=O)N[C@H](C(=O)N[C@@H](CC(C)C)C(=O)NCCOCCOCC(=O)NCCOCCOCC(=O)N[C@@H](CNC(=O)CC[C@@H]2NC(=O)[C@@H](CCCNC(=N)N)NC(=O)[C@H](CCCNC(=N)N)NC(=O)[C@@H](CCCNC(=N)N)NC(=O)[C@H](CCCNC(=N)N)NC(=O)[C@H](Cc3ccc4ccccc4c3)NC(=O)[C@@H](Cc3ccccc3)NC2=O)C(N)=O)[C@@H](C)CC)C(C)C)NC(=O)[C@H](CC(=O)O)NC(=O)[C@H](CC(C)C)NC1=O` [Peptide 9] (I: Ac-GGYPEDILDKHLQRVIL[AEEA][AEEA][Dap]-NH2 / II: cyclo([2Nal]R[dR]R[dR]E[dF]); lactam I:6-I:10; amide I:20-II:6), the “LDH release from SW480 cells” value in the data set on SW480 cells is given as “did not cause significant LDH release”. Regarding `CC(=O)N[C@@H](CC(C)C)C(=O)N[C@H](C(=O)N[C@@H](Cc1ccccc1)C(=O)N[C@H]1CC(=O)NCCCC[C@@H](C(=O)N[C@@H](CCC(N)=O)C(=O)N[C@@H](CC(C)C)C(=O)N[C@H](C(=O)N[C@@H](CO)C(=O)NCCOCCOCC(=O)N[C@@H](CCCCNC(=O)CC[C@@H]2NC(=O)[C@@H](CCCNC(=N)N)NC(=O)[C@H](CCCNC(=N)N)NC(=O)[C@@H](CCCNC(=N)N)NC(=O)[C@H](CCCNC(=N)N)NC(=O)[C@H](Cc3ccc4ccccc4c3)NC(=O)[C@@H](Cc3ccccc3)NC2=O)C(N)=O)[C@@H](C)O)NC(=O)[C@H](Cc2c[nH]c3ccccc23)NC(=O)[C@H](Cc2ccc(O)cc2)NC(=O)[C@H](Cc2cnc[nH]2)NC1=O)[C@@H](C)O` [Peptide 4] (I: Ac-LTFDHYWKQLTS[AEEA]K-NH2 / II: cyclo([2Nal]R[dR]R[dR]E[dF]); lactam I:4-I:8; amide I:14-II:6), in data set [2], the “effect on cell viability at higher concentrations” value was “almost complete loss of cell viability”.

These data come from article PMC7291828 (Journal of medicinal chemistry, 2019).
